Results taken from US20230390296A1, “NOVEL TREATMENT AND PREVENTION OF SARCOPENIA-RELATED DISEASES” (KEIO UNIVERSITY, priority 2020, published 2023).

What was measured:
[1] = Body weight and behavior during the dosing period; type: in vivo, mouse; settings: intraperitoneal, twice a week over three months, 20 mg/kg/day; young and old mice
Procedure: (§1) OK-1 manufactured in Manufacturing Example 1 was intraperitoneally administered to young and old mice twice a week over three months. The dosage was 20 mg/kg/day.

[2] = tested on: old mice; experiment: Muscle mass by MRI (volume of right gastrocnemius muscle/soleus muscle), with/without treadmill exercise; type: in vivo, mouse
Procedure: OK-1 was then intraperitoneally administered to each mouse twice a week at 20 mg/kg/day over 8 weeks (i.e., until reaching 23 week old and 88 week old, respectively). Treadmill exercise was conducted three times a week at 8 m/minute for 5 minutes→15 m/minute for 35 minutes while administering OK-1 twice a week at 20 mg/kg/day over 5 weeks (i.e., until reaching 28 week old and 93 week old, respectively). The muscle mass was then measured with the following equipment and conditions through MRI (FIG. 1B). MRI (MRminiSA1545, Japan REDOX) (magnetic flux density: 1.5 tesla (permanent magnet) (temporal resolution: 100 ns) was used to capture images of the lower limbs of the mice. The recovered data was converted into dicom data, and the volume of right gastrocnemius muscle/soleus muscle was quantified with Osirix Lite.

[3] = tested on: old mice (C57BL/6J); experiment: Treadmill test of muscle strength (endurance) in young and old mice; type: in vivo, mouse; settings: intraperitoneal, twice a week over three months, 20 mg/kg/day; young (15-week) and old (79-week) mice
From the text: Decrease in endurance in old mice In order to confirm that a decrease in muscle strength is observed in mouse models (C57BL/6J) (purchased from Oriental Yeast), the muscle strength (endurance) in 15-week old young mice and 79-week-old old mice was investigated in a treadmill test in accordance with the following (FIG. 1A). Prior to recording the performance, mice were trained for 3 days to acclimate the mice to the equipment. Electric stimulation grid was adjusted to 1 mA, and the gradient was set to 15 degrees. On the first day of training, mice were induced to walk for 10 minutes at a rate of 10 m/minute, allowed to rest for 10 minutes, and then induced to walk for 10 minutes at a rate of 10 m/minute on a treadmill. On day 2 and day 3, the first two steps were the under the same conditions as day 1, and then the mice were induced to start walking at 10 m/minute. The speed was increased by 1 m/minute until reaching the maximum speed of 20 m/minute. On day 4, the maximum exercise endurance was measured. Six mice were placed on a treadmill, which was started at a belt speed of 5 m/minute for 5 minutes to let the mice warm up. The speed was increased 1 m/minute until reaching the maximum speed of 20 m/minute. After making the mice run for 5 minutes, the speed was increased from 20 m/minute to 21 m/minute for 10 minutes. The mice were then forced to run at 22 m/minute until stalling on the electric stimulation grid for 10 seconds. The distance traveled until stalling for 10 seconds was measured.
as §1
74-week old mice (C57B16/J) were purchased from Oriental Yeast. […] Muscle strength (endurance) and grip strength of mice administered with C-82 were then measured through a treadmill test and smart grip strength meter for rats and mice (Muromachi Kikai Co., Ltd.), respectively. […]

[4] = tested on: C2C12 cells; experiment: Gene expression levels in treated cultured cells; type: cell-based, mouse
Procedure: Mouse striated muscle derived cells, i.e., C2C12 cells, were cultured and treated with OK-1, ICG-001, or C-82. Gene expression levels of cells treated with OK-1, ICG-001, or C-82, and untreated cells are compared.

[5] = tested on: Activin Receptor and ACVR2B; settings: cited from earlier work

Which “change in body weight and behavioral abnormality during the dosing period” value [1] does the source give for O=C1[C@H](Cc2ccc(O)cc2)N2C(=O)CCN(C(=O)NCc3ccccc3)[C@H]2CN1Cc1cccc2ccccc12 [compound 8] here?
Its value is “a significant change in body weight and behavioral abnormality were not observed”.

What about the “muscle mass (MRI), combined use of administration with exercise” value ([2]; 20 mg/kg/day twice a week plus treadmill exercise three times a week over 5 weeks) of the same molecule?
The value was “muscle mass significantly recovers synergistically”.

And the “muscle mass (MRI)” value ([2]; intraperitoneal 20 mg/kg/day twice a week over 8 weeks, then 5 further weeks)?
The value was “increases muscle mass in old mice”.

And the “muscle strength (endurance) through a treadmill test” value [3]?
Its value is “increase in muscle strength due to administration of compound 8 was observed specifically in old mice”.

Which “gene expression levels versus untreated cells” value [4] does the source give for O=C1[C@H](Cc2ccc(O)cc2)N2C(=O)CCN(C(=O)NCc3ccccc3)[C@H]2CN1Cc1cccc2ccccc12 [ICG-001] here?
Its value is “change in gene expression similar to Example 2”.

B1: Bimagrumab: monoclonal antibodies (bimagrumab) developed by targeting Activin Receptor and ACVR2B (antibody, chains of the INN, looked up, V domains shown)
VH: QVQLVQSGAEVKKPGASVKVSCKASGYTFTSSYINWVRQAPGQGLEWMGTINPVSGSTSYAQKFQGRVTMTRDTSISTAYMELSRLRSDDTAVYYCARGGWFDYWGQGTLVTVSS
VL: QSALTQPASVSGSPGQSITISCTGTSSDVGSYNYVNWYQQHPGKAPKLMIYGVSKRPSGVSNRFSGSKSGNTASLTISGLQAEDEADYYCGTFAGGSYYGVFGGGTKLTVL
For B1, which muscle mass ([5]; background statement) is on record?
Its muscle mass is “promotes muscle differentiation to increase muscle mass”.

What about the “sarcopenia symptoms including the gait speed and grip strength” value ([5]; phase 2 trial completed, development discontinued in 2018) of the same molecule?
Its value is “has not resulted in dramatic improvement in sarcopenia symptoms including the gait speed and grip strength”.
